PubChem BioAssay (NCI)
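1) Cells in 96-well plates. 2) Compound, 48 h, 5 concentrations. 3) Linear interpolation between surrounding doses. 4) Unreached endpoint = highest concentration. TGI is the concentration that stops growth completely.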

What was measured:
Experiment in all cases: NCI tumour cell line growth inhibition, 48 h
SK-OV-3 ovarian = test system: SK-OV-3 ovarian
HOP-62 NSCLC = test system: HOP-62 NSCLC
OVCAR-8 ovarian = test system: OVCAR-8 ovarian
XF 498 CNS = test system: XF 498 CNS
A549 NSCLC = test system: A549 NSCLC
UACC-62 melanoma = test system: UACC-62 melanoma
IGROV1 ovarian = test system: IGROV1 ovarian
M14 melanoma = test system: M14 melanoma
SK-MEL-2 melanoma = test system: SK-MEL-2 melanoma
SK-MEL-5 melanoma = test system: SK-MEL-5 melanoma
NCI-H460 lung = test system: NCI-H460 lung
NCI-H23 lung = test system: NCI-H23 lung
HCC-2998 colon = test system: HCC-2998 colon
K-562 leukemia = test system: K-562 leukemia
RPMI-8226 leukemia = test system: RPMI-8226 leukemia
COLO 205 colon = test system: COLO 205 colon
RXF 393 renal = test system: RXF 393 renal
MOLT-4 leukemia = test system: MOLT-4 leukemia
SNB-75 CNS = test system: SNB-75 CNS
SW-620 colon = test system: SW-620 colon
CCRF-CEM leukemia = test system: CCRF-CEM leukemia
SN12C renal = test system: SN12C renal
SNB-78 CNS = test system: SNB-78 CNS
OVCAR-4 ovarian = test system: OVCAR-4 ovarian
MALME-3M melanoma = test system: MALME-3M melanoma
HCT-116 colon = test system: HCT-116 colon
HCT-15 colon = test system: HCT-15 colon
RXF-631 renal = test system: RXF-631 renal
U251 CNS = test system: U251 CNS
786-0 renal = test system: 786-0 renal
UO-31 renal = test system: UO-31 renal
SNB-19 CNS = test system: SNB-19 CNS
DMS 273 small cell lung = test system: DMS 273 small cell lung
SF-295 CNS = test system: SF-295 CNS
HL-60(TB) leukemia = test system: HL-60(TB) leukemia
SF-539 CNS = test system: SF-539 CNS
SK-MEL-28 melanoma = test system: SK-MEL-28 melanoma
KM20L2 colon = test system: KM20L2 colon
HT29 colon = test system: HT29 colon
SF-268 CNS = test system: SF-268 CNS
HOP-18 NSCLC = test system: HOP-18 NSCLC
EKVX NSCLC = test system: EKVX NSCLC
LOX IMVI melanoma = test system: LOX IMVI melanoma
OVCAR-3 ovarian = test system: OVCAR-3 ovarian
A498 renal = test system: A498 renal
UACC-257 melanoma = test system: UACC-257 melanoma
NCI-H522 lung = test system: NCI-H522 lung
HOP-92 NSCLC = test system: HOP-92 NSCLC
TK-10 renal = test system: TK-10 renal
KM12 colon = test system: KM12 colon
NCI-H226 lung = test system: NCI-H226 lung
ACHN renal = test system: ACHN renal
M19-MEL melanoma = test system: M19-MEL melanoma
OVCAR-5 ovarian = test system: OVCAR-5 ovarian
DLD-1 colon = test system: DLD-1 colon
DMS 114 small cell lung = test system: DMS 114 small cell lung
LXFL 529 NSCLC = test system: LXFL 529 NSCLC
CAKI-1 renal = test system: CAKI-1 renal

C[C@@H](c1ccccc1)N(CC#N)C1CCC[C@H]1O (some centres undefined)
TGI (SK-OV-3 ovarian): > 100 µM
TGI (HOP-62 NSCLC): > 100 µM
TGI (OVCAR-8 ovarian): > 100 µM
TGI (XF 498 CNS): > 100 µM
TGI (A549 NSCLC): > 100 µM
TGI (UACC-62 melanoma): > 100 µM
TGI (IGROV1 ovarian): > 100 µM
TGI (M14 melanoma): > 100 µM
TGI (SK-MEL-2 melanoma): > 100 µM
TGI (SK-MEL-5 melanoma): > 100 µM
TGI (NCI-H460 lung): > 100 µM
TGI (NCI-H23 lung): > 100 µM
TGI (HCC-2998 colon): > 100 µM
TGI (K-562 leukemia): > 100 µM
TGI (RPMI-8226 leukemia): > 100 µM
TGI (COLO 205 colon): > 100 µM
TGI (RXF 393 renal): > 100 µM
TGI (MOLT-4 leukemia): > 100 µM
TGI (SNB-75 CNS): > 100 µM
TGI (SW-620 colon): > 100 µM
TGI (CCRF-CEM leukemia): > 100 µM
TGI (SN12C renal): > 100 µM
TGI (SNB-78 CNS): > 100 µM
TGI (OVCAR-4 ovarian): > 100 µM
TGI (MALME-3M melanoma): > 100 µM
TGI (HCT-116 colon): > 100 µM
TGI (HCT-15 colon): > 100 µM
TGI (RXF-631 renal): > 100 µM
TGI (U251 CNS): > 100 µM
TGI (786-0 renal): > 100 µM
TGI (UO-31 renal): > 100 µM
TGI (SNB-19 CNS): > 100 µM
TGI (DMS 273 small cell lung): > 100 µM
TGI (SF-295 CNS): > 100 µM
TGI (HL-60(TB) leukemia): > 100 µM
TGI (SF-539 CNS): > 100 µM
TGI (SK-MEL-28 melanoma): > 100 µM
TGI (KM20L2 colon): > 100 µM
TGI (HT29 colon): > 100 µM
TGI (SF-268 CNS): > 100 µM
TGI (HOP-18 NSCLC): > 100 µM
TGI (EKVX NSCLC): > 100 µM
TGI (LOX IMVI melanoma): > 100 µM
TGI (OVCAR-3 ovarian): > 100 µM
TGI (A498 renal): > 100 µM
TGI (UACC-257 melanoma): > 100 µM
TGI (NCI-H522 lung): > 100 µM
TGI (HOP-92 NSCLC): > 100 µM
TGI (TK-10 renal): > 100 µM
TGI (KM12 colon): > 100 µM
TGI (NCI-H226 lung): > 100 µM
TGI (ACHN renal): > 100 µM
TGI (M19-MEL melanoma): > 100 µM

CC(=O)O[C@H]1C(=O)[C@@]2(C)C(C(OC(=O)c3ccccc3)[C@]3(O)CC(OC(=O)C(O)C(NC(=O)c4ccccc4)c4ccc(C)cc4)C(C)=C1C3(C)C)[C@]1(OC(C)=O)CO[C@@H]1C[C@@H]2O (some centres undefined)
TGI (SK-OV-3 ovarian): 0.0962 µM
TGI (HOP-62 NSCLC): 24.1 µM
TGI (OVCAR-8 ovarian): 1.01 µM
TGI (XF 498 CNS): 0.134 µM
TGI (A549 NSCLC): 21.5 µM
TGI (UACC-62 melanoma): 6.51 µM
TGI (IGROV1 ovarian): 19 µM
TGI (M14 melanoma): 0.105 µM
TGI (SK-MEL-2 melanoma): 0.121 µM
TGI (OVCAR-5 ovarian): 0.237 µM
TGI (NCI-H460 lung): > 25 µM
TGI (NCI-H23 lung): 21.8 µM
TGI (DLD-1 colon): > 25 µM
TGI (K-562 leukemia): > 25 µM
TGI (RPMI-8226 leukemia): 7.56 µM
TGI (COLO 205 colon): 0.407 µM
TGI (RXF 393 renal): 0.13 µM
TGI (MOLT-4 leukemia): 5.82 µM
TGI (SNB-75 CNS): 1.31 µM
TGI (SW-620 colon): 0.0256 µM
TGI (CCRF-CEM leukemia): 9.81 µM
TGI (SN12C renal): > 25 µM
TGI (SNB-78 CNS): > 25 µM
TGI (DMS 114 small cell lung): 0.168 µM
TGI (OVCAR-4 ovarian): > 25 µM
TGI (LXFL 529 NSCLC): 11.1 µM
TGI (MALME-3M melanoma): 10.4 µM
TGI (HCT-116 colon): 4.75 µM
TGI (HCT-15 colon): 8.01 µM
TGI (U251 CNS): 0.264 µM
TGI (786-0 renal): 6.68 µM
TGI (UO-31 renal): 11.5 µM
TGI (SNB-19 CNS): 0.523 µM
TGI (DMS 273 small cell lung): 2.89 µM
TGI (HL-60(TB) leukemia): 2.55 µM
TGI (SF-539 CNS): 0.0652 µM
TGI (KM20L2 colon): 0.0981 µM
TGI (HT29 colon): 0.0861 µM
TGI (CAKI-1 renal): 12.1 µM
TGI (SF-268 CNS): > 25 µM
TGI (HOP-18 NSCLC): 23.6 µM
TGI (EKVX NSCLC): > 25 µM
TGI (LOX IMVI melanoma): 6.75 µM
TGI (A498 renal): > 25 µM
TGI (UACC-257 melanoma): > 25 µM
TGI (NCI-H522 lung): 0.0396 µM
TGI (HOP-92 NSCLC): 11.3 µM
TGI (TK-10 renal): > 25 µM
TGI (KM12 colon): 9.9 µM
TGI (ACHN renal): > 25 µM
TGI (M19-MEL melanoma): 3.57 µM
